For 26 compounds, IC50 results are on record in patent US20230242494A1, “MALONITRILE DERIVATIVES” (Hoffmann-La Roche Inc., priority 2020, published 2023).

pIC50: −log10 of the molar value.

For this test, the target named is T1, human cGAS (residues 161-522) (Homo sapiens, UniProt Q8N884).
T1 construct: human cGAS (residues 161-522); made in house
T1 sequence (Q8N884 161-522): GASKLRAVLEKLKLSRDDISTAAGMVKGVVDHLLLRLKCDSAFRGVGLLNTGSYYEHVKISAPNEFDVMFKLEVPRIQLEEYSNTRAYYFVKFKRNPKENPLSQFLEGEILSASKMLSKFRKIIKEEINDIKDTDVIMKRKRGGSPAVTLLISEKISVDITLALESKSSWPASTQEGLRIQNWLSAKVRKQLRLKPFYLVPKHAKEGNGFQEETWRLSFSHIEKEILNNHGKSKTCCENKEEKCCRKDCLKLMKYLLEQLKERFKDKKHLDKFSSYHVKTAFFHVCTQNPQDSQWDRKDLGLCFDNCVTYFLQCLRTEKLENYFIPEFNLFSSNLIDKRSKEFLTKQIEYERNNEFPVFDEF
The test is described as follows: cGAS Activity Assay—Malachite Green. The conditions noted are these: recombinant purified human cGAS 25 nM; 80 μM ATP, 80 μM GTP, 100 nM ISD; 4 hour at RT; phosphate detection by Malachite Green. The test is classed as biochemical. As for the experimental part:
Compounds were tested for cGAS inhibition in a coupled enzymatic assay based on Phosphate detection by Malachite Green. Final assay conditions were 20 mM TRIS pH 7.5 (Applichem), 5 mM MgCl2 (Sigma) and 0.01% BSA (Sigma) supplemented with 80 μM ATP (Sigma), 80 μM GTP (Sigma) and 100 nM Interferon Stimulating DNA (ISD) (Microsynth). Recombinantly expressed purified human cGAS (residues 161-522) was used at 25 nM.
All compounds were prepared as 10 mM stock solutions in DMSO and a 16 pt dilution series in DMSO with a dilution factor of 2.5 was prepared. 1 μL of DMSO dilution series was transferred to 32.3 μL reaction buffer, mixed by pipetting up/down, spun for 1 minute at 3000 rpm and was visually inspected for precipitation. 5 μL of 3-fold enzyme stock solution were transferred to an empty 384-well Black/Clear Flat Bottom Polystyrene NBS (Corning) rows 3-24. Rows 1-2 were filled with assay buffer. Plates were spun 10 seconds at 1000 rpm (164×g). 5 μL of compound intermediate dilution was added and mixed by pipetting up/down to rows 3-24. Rows 1-2 were filled with 3.1% DMSO assay buffer. Plates were spun 10 seconds at 1000 rpm (164×g). 5 μL 3-fold Nucleotide/DNA mix was added to all wells to start the reaction. Plates were spun 10 seconds at 1000 rpm (164×g) and incubated for 4 hour at room temperature (RT) in the dark. 5 μL 4 U/ml PPase (Sigma) were added to all wells. Plates spun 10 seconds at 1000 rpm (164×g). 10 μL BioMol green Solution (Enzo Life Sciences) was added to all wells. Plates spun 10 seconds at 1000 rpm (164×g) and incubated 30 minutes at RT in the dark. Absorbance data was collected 620 nm on an EnVision Multilable Reader (Perkin Elmer) and the following measurement settings were used: excitation filter photometric was 620 nm; excitation from the top; measurement height was 1 mm; number of flashes was 30; number of flashes integrated was 1.
All plates are checked for abnormalities and outliers in the Blank Control (no protein, row 1) and the Neutral Control (no compound, row 2) are excluded using the 3*SD rule. Data was normalized to 0 and 100% by Blank and Neutral Control and each curve was fitted and judged using the 4 parameter logistic equation to determine the IC50 for cGAS inhibition.
Table 13 provides IC50 values (μM) for cGAS inhibition obtained for particular examples of the present invention as measured by the above-described assay.
Turning to `Cc1oncc1/C(O)=C(\C#N)C(=O)Nc1cccc(C#N)c1` [Example 33, (Z)-2-cyano-N-(3-cyanophenyl)-3-hydroxy-3-(5-methylisoxazol-4-yl)prop-2-enamide], the pIC50 is 6.51.
On to `Cc1oncc1/C(O)=C(\C#N)C(=O)Nc1ccc([S+]([O-])c2ccccc2)cc1` (centres unmarked) [Example 34, (Z)-2-cyano-3-hydroxy-3-(5-methylisoxazol-4-yl)-N-(4-(phenylsulfinyl)phenyl) acrylamide], for which the pIC50 was 6.72.
Regarding `Cc1oncc1/C(O)=C(\C#N)C(=O)Nc1ccc(C(=O)N(C)C)cc1` [Example 35, 4-[[(Z)-2-cyano-3-hydroxy-3-(5-methylisoxazol-4-yl)prop-2-enoyl]amino]-N,N-dimethyl-benzamide], the pIC50 was 6.15.
Under `CNC(=O)c1ccc(NC(=O)/C(C#N)=C(\O)c2cnoc2C)cc1` [Example 36, 4-[[(Z)-2-cyano-3-hydroxy-3-(5-methylisoxazol-4-yl)prop-2-enoyl]amino]-N-methyl-benzamide] stands 6.43.
Under `COc1ccc(NC(=O)/C(C#N)=C(\O)c2cnoc2C)nc1` [Example 37, (Z)-2-cyano-3-hydroxy-N-(5-methoxy-2-pyridyl)-3-(5-methylisoxazol-4-yl)prop-2-enamide] stands 6.38.
Under `Cc1oncc1/C(O)=C(\C#N)C(=O)Nc1ccc(C(=O)c2ccccc2)cc1` [Example 38, (Z)-N-(4-benzoylphenyl)-2-cyano-3-hydroxy-3-(5-methylisoxazol-4-yl)prop-2-enamide] stands 5.94.
For the compound `COc1ccc(S(=O)(=O)c2ccc(NC(=O)/C(C#N)=C(\O)c3cnoc3C)cc2)cc1` [Example 39, (Z)-2-cyano-3-hydroxy-N-(4-((4-methoxyphenyl)sulfonyl)phenyl)-3-(5-methylisoxazol-4-yl)acrylamide], the pIC50 is 6.31.
On to `Cc1oncc1/C(O)=C(\C#N)C(=O)Nc1ccc(S(=O)(=O)Nc2nccs2)cc1` [Example 40, (Z)-2-cyano-3-hydroxy-3-(5-methylisoxazol-4-yl)-N-[4-(thiazol-2-ylsulfamoyl)phenyl]prop-2-enamide], for which the pIC50 is 6.85.
In the case of `Cc1oncc1/C(O)=C(\C#N)C(=O)Nc1ccc(OC2COC2)cc1` [Example 41, (Z)-2-cyano-3-hydroxy-3-(5-methylisoxazol-4-yl)-N-[4-(oxetan-3-yloxy)phenyl]prop-2-enamide], the pIC50 was 5.89.
On to `CC(=O)Nc1ccc(NC(=O)/C(C#N)=C(\O)c2cnoc2C)cc1` [Example 42, (Z)-N-(4-acetamidophenyl)-2-cyano-3-hydroxy-3-(5-methylisoxazol-4-yl)prop-2-enamide], for which the pIC50 was 6.57.
For `Cc1nnc(NS(=O)(=O)c2ccc(NC(=O)/C(C#N)=C(\O)c3cnoc3C)cc2)s1` [Example 43, (Z)-2-cyano-3-hydroxy-3-(5-methylisoxazol-4-yl)-N-[4-[(5-methyl-1,3,4-thiadiazol-2-yl)sulfamoyl]phenyl]prop-2-enamide] the value was 6.68.
For the compound `Cc1oncc1/C(O)=C(\C#N)C(=O)Nc1ccc(C(N)=O)cc1` [Example 44, 4-[[(Z)-2-cyano-3-hydroxy-3-(5-methylisoxazol-4-yl)prop-2-enoyl]amino]benzamide], the pIC50 is 6.62.
Under `Cc1oncc1/C(O)=C(\C#N)C(=O)Nc1ccc(S(=O)(=O)Nc2ncccn2)cc1` [Example 45, (Z)-2-cyano-3-hydroxy-3-(5-methylisoxazol-4-yl)-N-[4-(pyrimidin-2-ylsulfamoyl)phenyl]prop-2-enamide] stands 7.05.
Turning to `COc1cnc(NC(=O)/C(C#N)=C(\O)c2cnoc2C)nc1` [Example 46, (Z)-2-cyano-3-hydroxy-N-(5-methoxypyrimidin-2-yl)-3-(5-methylisoxazol-4-yl)prop-2-enamide], the pIC50 was 7.15.
As to `Cc1oncc1/C(O)=C(\C#N)C(=O)Nc1ccc(S(=O)(=O)N2CCOCC2)cc1` [Example 47, (Z)-2-cyano-3-hydroxy-3-(5-methylisoxazol-4-yl)-N-(4-(morpholinosulfonyl)phenyl)acrylamide], the pIC50 is 6.70.
As to `CCCNS(=O)(=O)c1ccc(NC(=O)/C(C#N)=C(\O)c2cnoc2C)cc1` [Example 48, (Z)-2-cyano-3-hydroxy-3-(5-methylisoxazol-4-yl)-N-(4-(N-propylsulfamoyl)phenyl) acrylamide], the pIC50 was 7.00.
As to `Cc1oncc1/C(O)=C(\C#N)C(=O)Nc1cccc(S(=O)(=O)c2ccccc2)c1` [Example 49, (Z)-2-cyano-3-hydroxy-3-(5-methylisoxazol-4-yl)-N-(3-(phenylsulfonyl)phenyl) acrylamide], the pIC50 was 5.60.
Under `Cc1cc(C(F)(F)F)ccc1NC(=O)/C(C#N)=C(\O)c1cnoc1C` [Example 50, (Z)-2-cyano-3-hydroxy-N-(2-methyl-4-(trifluoromethyl)phenyl)-3-(5-methylisoxazol-4-yl)acrylamide] stands 5.98; under `Cc1oncc1/C(O)=C(\C#N)C(=O)Nc1cccc(-c2ccccc2)c1` [Example 51, (Z)-2-cyano-3-hydroxy-3-(5-methylisoxazol-4-yl)-N-(3-phenylphenyl) prop-2-enamide], 5.70; under `Cc1oncc1/C(O)=C(\C#N)C(=O)Nc1cccc(Oc2ccccc2)c1` [Example 52, (Z)-2-cyano-3-hydroxy-3-(5-methylisoxazol-4-yl)-N-(3-phenoxyphenyl)acrylamide], 5.76.
For `CCN(CC)C(=O)CNS(=O)(=O)c1ccc(NC(=O)/C(C#N)=C(\O)c2cnoc2C)cc1` [Example 53, (Z)-2-cyano-N-(4-(N-(2-(diethylamino)-2-oxoethyl)sulfamoyl)phenyl)-3-hydroxy-3-(5-methylisoxazol-4-yl)acrylamide] the value was 6.52.
Under `Cc1oncc1/C(O)=C(\C#N)C(=O)Nc1ccc(S(=O)(=O)Nc2ccccc2)cc1` [Example 54, (Z)-2-cyano-3-hydroxy-3-(5-methylisoxazol-4-yl)-N-(4-(N-phenylsulfamoyl)phenyl) acrylamide] stands 6.66; under `Cc1oncc1/C(O)=C(\C#N)C(=O)Nc1ccc(Sc2ccccc2)cc1` [Example 55, (Z)-2-cyano-3-hydroxy-3-(5-methylisoxazol-4-yl)-N-(4-(phenylthio)phenyl) acrylamide], 5.69; under `Cc1oncc1/C(O)=C(\C#N)C(=O)Nc1ccc(C(F)(F)F)cc1Cl` [Example 56, (Z)-N-(2-chloro-4-(trifluoromethyl)phenyl)-2-cyano-3-hydroxy-3-(5-methylisoxazol-4-yl)acrylamide], 6.13.
Turning to `Cc1oncc1/C(O)=C(\C#N)C(=O)Nc1ccc(S(=O)(=O)Nc2ccc(C#N)cc2)cc1` [Example 57, (Z)-2-cyano-N-(4-(N-(4-cyanophenyl)sulfamoyl)phenyl)-3-hydroxy-3-(5-methylisoxazol-4-yl)acrylamide], the pIC50 was 6.54.
For `Cc1oncc1C(=O)N(c1ccc(C#N)cc1)S(=O)(=O)c1ccc(NC(=O)/C(C#N)=C(\O)c2cnoc2C)cc1` [Example 58, (Z)-N-((4-(2-cyano-3-hydroxy-3-(5-methylisoxazol-4-yl)acrylamido)phenyl)sulfonyl)-N-(4-cyanophenyl)-5-methylisoxazole-4-carboxamide] the value was 6.48.

The pIC50 is −log10 of the IC50, conventionally taken in molar units.
